Series [1] concerns organotypic hippocampal slice culture. Kind of series: In vitro metabolism of 3APS in organotypic hippocampal slice culture. The class given is in vitro ADME. Particulars: 3-day incubation in the culture media. As for the experimental part: In another in vitro model employing organotypic hippocampal slice culture, the conversion of 3APS to 2-carboxyethanesulfonic acid was time-dependent. More than 60% of 3APS was converted to 2-carboxyethanesulfonic acid after 3-day incubation in the culture media. 2-carboxyethanesulfonic acid was also detected after incubation of 3APS in human hepatocyte (HepG2) culture media.

Series [2] in a line: Absorption, excretion and plasma kinetics of 14C-3APS in humans. The class given is in vivo, human. The text has this: Following the identification of 3APS metabolites, plasma and urine samples from this human AME study were reanalyzed for 3APS and 3APS metabolite (2-carboxyethanesulfonic acid, 3-hydroxy-1-propanesulfonic acid and 3-acetylamino-1-propanesulfonic acid) concentrations using qualified HPLC and MS/MS methods to determine the metabolic profile of ^14C-3APS in human.

For `NCCCS(=O)(=O)O` [Compound 3APS, 3-amino-1-propanesulfonic acid], the “3APS converted to 2-carboxyethanesulfonic acid” value in series [1] was “More than 60%”. Besides, in series [2] (healthy subjects, oral 14C-3APS), the “% of total radioactivity in plasma based on AUC0-τ” value is “approximately 48%”. For the same molecule, in series [2] (human urine), the “% of total amount of radioactivity excreted in urine” value is on record as “approximately 15%”.

The values above are taken from patent US11020360B2, “Methods, compounds, compositions and vehicles for delivering 3-amino-1-propanesulfonic acid” (Bellus Health, Inc., priority 2006, dated 2021).
